pIC50: −log10 of the molar value. Activity calls are given as the source filed them. The rule behind the calls is not given here.
Experiments:
[1] = system: A549; assay: Anti-migration activity in human A549 cells assessed as distance travelled at 1.25 uM by wound healing assay based phase contrast microscopy; assay type: functional
[2] = system: A549; assay: Induction of apoptosis in human A549 cells assessed as chromatin condensation at 0.625 to 2.5 uM incubated for 48 hrs by AO/EB staining based fluorescence microscopy; assay type: functional, cell-based; details: dose 0.625-2.5 µM, DDE = dose-dependent effect
[3] = system: A549; assay: Induction of apoptosis in human A549 cells assessed as necrotic cells at 0.625 to 2.5 uM incubated for 48 hrs by Annexin V-FITC/propidium iodide staining based flow cytometric analysis; assay type: functional; details: dose 0.625-2.5 µM
[4] = system: Calf thymus DNA; assay: Binding affinity to calf thymus DNA assessed as hyperchromicity at 10 to 20 uM by UV-Vis spectroscopic analysis; assay type: nucleic-acid assay; details: Bos taurus; dose 10-20 µM
[5] = system: A549; assay: Induction of apoptosis in human A549 cells assessed as apoptotic body fragmentation at 0.625 to 2.5 uM incubated for 48 hrs by AO/EB staining based fluorescence microscopy; assay type: functional, cell-based; details: dose 0.625-2.5 µM, DDE = dose-dependent effect
[6] = biological target: DNA topoisomerase 2-alpha (Homo sapiens) (UniProt P11388); assay: Inhibition of DNA topoisomerase 2 (unknown origin) assessed as reduction in decatenation using kDNA as substrate incubated for 30 mins measured by agarose gel electrophoresis method
Chain of DNA topoisomerase 2-alpha (Homo sapiens) (P11388 whole entry): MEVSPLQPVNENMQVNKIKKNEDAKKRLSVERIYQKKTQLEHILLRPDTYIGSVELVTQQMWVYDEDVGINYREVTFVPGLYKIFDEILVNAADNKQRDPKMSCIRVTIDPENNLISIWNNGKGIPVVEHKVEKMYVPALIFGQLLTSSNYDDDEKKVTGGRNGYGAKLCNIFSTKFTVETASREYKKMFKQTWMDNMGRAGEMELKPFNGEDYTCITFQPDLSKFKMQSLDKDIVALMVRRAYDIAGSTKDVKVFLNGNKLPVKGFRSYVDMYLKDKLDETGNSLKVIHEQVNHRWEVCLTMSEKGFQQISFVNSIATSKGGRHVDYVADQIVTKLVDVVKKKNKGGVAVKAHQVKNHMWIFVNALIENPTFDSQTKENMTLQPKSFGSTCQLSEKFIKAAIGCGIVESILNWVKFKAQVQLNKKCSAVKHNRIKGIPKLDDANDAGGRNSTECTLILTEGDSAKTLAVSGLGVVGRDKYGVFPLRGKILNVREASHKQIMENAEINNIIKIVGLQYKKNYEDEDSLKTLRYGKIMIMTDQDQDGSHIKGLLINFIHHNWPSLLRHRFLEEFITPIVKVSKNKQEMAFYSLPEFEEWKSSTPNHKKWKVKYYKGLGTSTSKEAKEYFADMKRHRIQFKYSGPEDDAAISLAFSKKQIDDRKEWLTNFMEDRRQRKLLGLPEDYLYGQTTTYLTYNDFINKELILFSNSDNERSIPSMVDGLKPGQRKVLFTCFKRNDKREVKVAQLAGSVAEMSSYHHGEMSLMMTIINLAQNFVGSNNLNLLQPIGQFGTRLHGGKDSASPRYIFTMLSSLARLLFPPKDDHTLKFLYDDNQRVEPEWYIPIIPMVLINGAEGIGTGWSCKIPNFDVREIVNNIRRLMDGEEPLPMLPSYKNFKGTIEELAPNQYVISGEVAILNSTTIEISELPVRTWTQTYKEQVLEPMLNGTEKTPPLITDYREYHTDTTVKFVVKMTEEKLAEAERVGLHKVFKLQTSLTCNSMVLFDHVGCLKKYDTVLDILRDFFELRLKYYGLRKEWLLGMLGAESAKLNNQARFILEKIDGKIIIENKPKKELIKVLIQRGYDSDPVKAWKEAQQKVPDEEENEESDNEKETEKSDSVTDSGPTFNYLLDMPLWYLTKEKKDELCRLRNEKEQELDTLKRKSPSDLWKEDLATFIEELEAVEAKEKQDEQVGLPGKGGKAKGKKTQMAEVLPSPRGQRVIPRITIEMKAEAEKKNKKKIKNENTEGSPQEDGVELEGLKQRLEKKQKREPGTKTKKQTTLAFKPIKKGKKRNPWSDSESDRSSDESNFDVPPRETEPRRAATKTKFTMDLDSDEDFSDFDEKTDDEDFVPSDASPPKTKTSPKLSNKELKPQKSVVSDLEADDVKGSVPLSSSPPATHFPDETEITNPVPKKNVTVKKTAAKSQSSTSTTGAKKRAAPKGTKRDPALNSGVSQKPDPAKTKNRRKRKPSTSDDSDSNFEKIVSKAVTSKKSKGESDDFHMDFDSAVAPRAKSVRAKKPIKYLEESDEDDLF

[7] = system: A549; assay: Anti-migration activity in human A549 cells assessed as distance travelled at 2.5 uM by wound healing assay based phase contrast microscopy; assay type: functional
[8] = system: A549; assay: Induction of apoptosis in human A549 cells assessed as late apoptotic cells at 2.5 uM incubated for 48 hrs by Annexin V-FITC/propidium iodide staining based flow cytometric analysis; assay type: functional
[9] = system: A549; assay: Anti-migration activity in human A549 cells assessed as distance travelled at 1.25 uM incubated for 48 hrs by wound healing assay based phase contrast microscopy; assay type: functional
[10] = system: A549; assay: Induction of apoptosis in human A549 cells assessed as necrotic cells at 0.625 uM incubated for 48 hrs by Annexin V-FITC/propidium iodide staining based flow cytometric analysis; assay type: functional
[11] = system: A549; assay: Induction of apoptosis in human A549 cells assessed as nuclear fragmentation at 0.625 to 2.5 uM incubated for 48 hrs by DAPI staining based fluorescence microscopic analysis; assay type: functional, cell-based; details: dose 0.625-2.5 µM
[12] = biological target: T1, DNA topoisomerase 1 (Homo sapiens, UniProt P11387); assay: Inhibition of human DNA topoisomerase 1 assessed as reduction in pBR322 DNA relaxation incubated for 1 hrs measured by agarose gel electrophoresis method
T1 sequence (P11387 whole entry): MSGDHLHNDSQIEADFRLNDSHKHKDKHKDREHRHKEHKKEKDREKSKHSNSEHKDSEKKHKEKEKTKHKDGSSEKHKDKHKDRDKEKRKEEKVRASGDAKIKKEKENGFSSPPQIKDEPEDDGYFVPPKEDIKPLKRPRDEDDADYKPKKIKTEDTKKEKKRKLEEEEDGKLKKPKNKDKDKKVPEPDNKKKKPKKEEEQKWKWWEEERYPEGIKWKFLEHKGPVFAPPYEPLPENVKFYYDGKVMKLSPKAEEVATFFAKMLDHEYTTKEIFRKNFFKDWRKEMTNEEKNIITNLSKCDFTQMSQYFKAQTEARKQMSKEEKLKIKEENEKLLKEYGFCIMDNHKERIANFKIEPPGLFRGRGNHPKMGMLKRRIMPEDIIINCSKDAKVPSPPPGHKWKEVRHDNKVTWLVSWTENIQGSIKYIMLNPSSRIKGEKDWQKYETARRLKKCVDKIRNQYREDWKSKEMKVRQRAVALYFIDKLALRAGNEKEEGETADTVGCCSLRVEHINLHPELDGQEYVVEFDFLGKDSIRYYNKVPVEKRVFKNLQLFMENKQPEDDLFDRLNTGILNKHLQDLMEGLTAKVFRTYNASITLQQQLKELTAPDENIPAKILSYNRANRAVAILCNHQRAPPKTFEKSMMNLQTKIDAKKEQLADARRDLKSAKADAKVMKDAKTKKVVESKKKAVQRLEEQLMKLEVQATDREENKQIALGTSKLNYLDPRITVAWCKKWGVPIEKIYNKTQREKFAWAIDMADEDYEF

[13] = system: A549; assay: Induction of apoptosis in human A549 cells assessed as cell shrinkage at 0.625 to 2.5 uM incubated for 48 hrs by AO/EB staining based fluorescence microscopy; assay type: functional; details: dose 0.625-2.5 µM, DDE = dose-dependent effect
[14] = system: A549; assay: Induction of apoptosis in human A549 cells assessed as necrotic cells at 2.5 uM incubated for 48 hrs by Annexin V-FITC/propidium iodide staining based flow cytometric analysis; assay type: functional
[15] = system: A549; assay: Induction of intracellular ROS generation in human A549 cells at 0.625 to 2.5 uM incubated for 48 hrs by […] fluorescence microscopic analysis; assay type: functional, cell-based; details: dose 0.625-2.5 µM, DDE = dose-dependent effect
[16] = system: A549; assay: Induction of apoptosis in human A549 cells assessed as chromatin condensation at 0.625 to 2.5 uM incubated for 48 hrs by DAPI staining based fluorescence microscopic analysis; assay type: functional, cell-based; details: dose 0.625-2.5 µM
[17] = system: HT-29; assay: Cytotoxicity against human HT-29 cells assessed as cell growth inhibition incubated for 48 hrs by MTT assay; assay type: functional, cell-based; details: HT-29, 48 h
[18] = system: A549; assay: Induction of apoptosis in human A549 cells assessed as changes in cell morphology at 0.625 to 2.5 uM incubated for 48 hrs by phase contrast microscopy; assay type: functional, cell-based; details: dose 0.625-2.5 µM
[19] = system: A549; assay: Induction of apoptosis in human A549 cells assessed as membrane blebbing at 0.625 to 2.5 uM incubated for 48 hrs by AO/EB staining based fluorescence microscopy; assay type: functional, cell-based; details: dose 0.625-2.5 µM, DDE = dose-dependent effect
[20] = system: MCF7; assay: Cytotoxicity against human MCF7 cells assessed as cell growth inhibition incubated for 48 hrs by MTT assay; assay type: functional, cell-based; details: MCF7, 48 h
[21] = system: HCT-116; assay: Cytotoxicity against human HCT-116 cells assessed as cell growth inhibition incubated for 48 hrs by MTT assay; assay type: functional, cell-based; details: HCT-116, 48 h
[22] = system: A549; assay: Cytotoxicity against human A549 cells assessed as cell growth inhibition incubated for 48 hrs by MTT assay; assay type: functional, cell-based; details: A549, 48 h
[23] = system: A549; assay: Inhibition of colony formation in human A549 cells assessed as decrease in colonies at 0.625 to 2.5 uM incubated for 7 days by crystal violet staining based assay; assay type: functional, cell-based; details: dose 0.625-2.5 µM, time 7.0 day, DDE = dose-dependent effect
[24] = biological target: T2, DNA topoisomerase 1 (Homo sapiens) (UniProt P11387); assay: Inhibition of DNA topoisomerase 1 (unknown origin) assessed as reduction in pBR322 DNA relaxation at 10 uM incubated for 30 mins measured by agarose gel electrophoresis method relative to control
T2 sequence (whole entry): T1 sequence (P11387 whole entry)

[25] = system: A549; assay: Anti-migration activity in human A549 cells assessed as distance travelled at 0.625 uM by wound healing assay based phase contrast microscopy; assay type: functional
[26] = system: A549; assay: Anti-migration activity in human A549 cells assessed as distance travelled at 0.625 uM incubated for 48 hrs by wound healing assay based phase contrast microscopy; assay type: functional
[27] = system: A549; assay: Inhibition of cell migration in human A549 cells at 0.625 to 2.5 uM incubated for 48 hrs by wound healing assay based phase contrast microscopy; assay type: functional; details: dose 0.625-2.5 µM, DDE = dose-dependent effect
[28] = system: A549; assay: Induction of apoptosis in human A549 cells assessed as cell membrane disruption at 0.625 to 2.5 uM incubated for 48 hrs by phase contrast microscopy; assay type: functional, cell-based; details: dose 0.625-2.5 µM, DDE = dose-dependent effect
[29] = system: A549; assay: Induction of apoptosis in human A549 cells assessed as reduction on viable cells at 0.625 to 2.5 uM incubated for 48 hrs by phase contrast microscopy; assay type: functional, cell-based; details: dose 0.625-2.5 µM, DDE = dose-dependent effect
[30] = system: Calf thymus DNA; assay: Binding affinity to calf thymus DNA assessed as hyperchromicity at 10 uM by circular dichroism spectroscopy; assay type: nucleic-acid assay; details: Bos taurus
[31] = system: A549; assay: Induction of apoptosis in human A549 cells assessed as cell shrinkage at 0.625 to 2.5 uM incubated for 48 hrs by phase contrast microscopy; assay type: functional, cell-based; details: dose 0.625-2.5 µM, DDE = dose-dependent effect
[32] = system: A549; assay: Induction of apoptosis in human A549 cells assessed as changes in nuclear morphology at 0.625 to 2.5 uM incubated for 48 hrs by DAPI staining based fluorescence microscopic analysis; assay type: functional, cell-based; details: dose 0.625-2.5 µM
[33] = system: Calf thymus DNA; assay: Binding affinity to calf thymus DNA assessed as increase in viscosity at 15 uM by ethidium bromide-Hoechst 33342 staining based analysis; assay type: nucleic-acid assay; details: Bos taurus
[34] = system: A549; assay: Induction of apoptosis in human A549 cells assessed as late apoptotic cells at 0.625 to 1.25 uM incubated for 48 hrs by Annexin V-FITC/propidium iodide staining based flow cytometric analysis; assay type: functional, cell-based; details: dose 0.625-1.25 µM
[35] = Cytotoxicity against rat NRK cells assessed as cell growth inhibition incubated for 48 hrs by MTT assay; assay type: toxicity, cell-based
[36] = system: SK-MEL-28; assay: Cytotoxicity against human SK-MEL-28 cells assessed as cell growth inhibition incubated for 48 hrs by MTT assay; assay type: functional, cell-based; details: SK-MEL-28, 48 h
[37] = system: A549; assay: Anti-migration activity in human A549 cells assessed as distance travelled at 2.5 uM incubated for 48 hrs by wound healing assay based phase contrast microscopy; assay type: functional

For Cc1ccc(C/N=C2\NC(=O)/C(=C3\CCNC(=O)c4[nH]c5ccccc5c43)S2)cc1, the Activity [1] was 391.93 um, the Activity [2] was “Dde” and the Activity [3] was 2.97%. The Activity [4] was “Active”, the Activity [5] was “Dde” and the inhibition [6] was “Active”. The Activity [7] was 363.56 um, the Activity [8] was 3.09% and the Activity [9] was 293.25 um. The Activity [10] was 4.8%, the Activity [11] was “Active” and the pIC50 [12] was 4.32. For the same compound, the Activity [13] was “Dde”, the Activity [14] was 5.96% and the Activity [15] was “Dde”. The Activity [16] was “Active”, the pIC50 [17] was 4.96 and the Activity [18] was “Active”. For the same compound, the Activity [19] was “Dde”, the pIC50 [20] was 5.10 and the pIC50 [21] was 5.18. The pIC50 [22] was 5.91, the inhibition [23] was “Dde” and the inhibition [24] was 28%. For the same compound, the Activity [25] was 298.42 um, the Activity [26] was 259.59 um and the inhibition [27] was “Dde”. For the same compound, the Activity [28] was “Dde”, the Activity [29] was “Dde” and the Activity [30] was “Active”. For the same compound, the Activity [31] was “Dde”, the Activity [32] was “Active” and the Activity [33] was “Active”. For the same compound, the Activity [34] was “Active”, the IC50 at 48 h [35] was 53.2 µM and the pIC50 [36] was 5.52. The Activity [37] was 445.52 um.

Source: ChEMBL document CHEMBL5137032, “Design, synthesis of DNA-interactive 4-thiazolidinone-based indolo-/pyrroloazepinone conjugates as potential cytotoxic and topoisomerase I inhibitors” (Eur J Med Chem, 2022)
